Assay results taken from patent US20030092083A1, “Cage antigen” (priority 2001, published 2003).
Entries after “also recorded” stand apart in the source; their conditions may differ.

What was measured:
[1] = system: CAGE expression in PANC-1 and ACHN cancer cell lines; assay: RT-PCR of CAGE expression after treatment of cancer cell lines that do not express CAGE; assay type: cell-based; settings: various concentrations for 4 days or 2 μM for various time periods
Text: Many of the known C/T antigen genes are methylated in their promoter regions. […] It is understood that it would be within one of ordinary skill in the art to determine the methylation status of CAGE gene by cloning the promoter sequence of CAGE using any available method such as, but not limited to, genomic inverse PCR.
Next, we investigated whether CAGE gene was methylated. […] For RT-PCR, 5′-[…]-3′ (sense, SEQ ID NO: 11) and 5′-[…]-3′ (antisense, SEQ ID NO: 7) were used. While the mechanism of transcriptional silencing of CAGE in some cancer cell lines may not be clear, it appears that testis-specific expression of CAGE is related at least in part to its demethylation level. In addition, the role of transcription factors in the expression of CAGE gene cannot be ruled out. The absence of transcription factors in other somatic tissues may be responsible for the absence of CAGE expression in these tissues.

CD8+ T cells = assay: IFN-γ ELISPOT assay for measuring CD8+ T cell stimulation; assay type: cell-based, human; settings: 10 μg/ml peptide; CD8+ T cells from PBL of healthy HLA-A2 donors as effector, T2 cells as target, 20 hours
Method: With these peptides, we stimulated CD8+ T cells isolated from PBL of healthy donors. The activated CD8+ T cells were incubated with target cells ([…]). The effect of CD8+ T cells on target cells was measured by ELISPOT assay, which detects the amount of IFN-γ released due to activation of CD8+ T cells.
For isolation of PBL, Ficoll-Paque® PLUS (Amersham Pharmacia Biotech) was used. Isolation of PBLs was carried out according to the instruction manual provided by the manufacturer (Amersham Pharmacia Biotech). Briefly, 30 ml of whole blood was mixed with 20 ml of Ficoll-Paque® and centrifuged at 800 g for 20 min. The pellet was transferred to a new tube. 20 ml of PBS buffer was added to the pellet, and centrifuged at 800 g for 10 min. After centrifugation, 10 ml of PBS buffer was added to the pellet. 5 ml of Ficoll-Paque® was added and the contents centrifuged at 800 g for 20 min. 10 ml PBS was added to the pellet for washing, and the contents centrifuged at 800 g for 10 min. Isolated PBLs from healthy donors (HLA-A2 type) were dissolved in RPMI 1640 containing 10% human serum and antibiotics.
For isolation of CD8+ T cells from PBL, CD8 negative isolation kit (DYNAL) was used and isolation was carried out according to the instruction manual provided by the manufacturer. […]

Row | Compound | induction of CAGE expression (RT-PCR) [1] | induction of CD8+ T cells (IFN-γ release, ELISPOT) (CD8+ T cells)
1 | Nc1ncn([C@H]2C[C@H](O)[C@@H](CO)O2)c(=O)n1 [5-aza-2′-deoxycytidine] | induced CAGE expression in both dose and time-dependent manner; also recorded: induced expression of CAGE in dosage and time-dependent manner | –
2 | YLMPGFIHL [peptide of CAGE protein, start position 276] | – | showed induction of CD8+ T cells
3 | KMAGELIKI [peptide of CAGE protein, start position 576] | – | showed induction of CD8+ T cells
